Laboratory results reported in publication PMC11945487 (Viruses, 2025).

Assays:
HEK293 cells = test: MTT cytotoxicity assay; type: cell-based, human; details: HEK293, 24 h, 0 to 100 µM
SARS-CoV-2 M^pro = SARS-CoV-2 M^pro (Severe acute respiratory syndrome coronavirus 2, UniProt P0DTD1); type: binding; details: modified Stern–Volmer plot
[1] = ref [41]; cited from earlier work

## O=c1c(O)c(-c2ccc(O)c(O)c2)oc2cc(O)cc(O)c12 [Quercetin]
HEK293 cells
  cytotoxicity / cell viability: consistent and high cell viability

## COc1cc2ccc(=O)oc2cc1O [Scopoletin, 6-methoxy-7-hydrocoumarian]
SARS-CoV-2 M^pro
  KSV: 932000 M⁻¹
  number of binding sites: one
HEK293 cells
  cytotoxicity / cell viability: maintained acceptable cell viability
[1]
  solubility in organic solvents: dissolves in organic solvents such as methanol and chloroform
